This note sets out measurements from ChEMBL document CHEMBL4507327 (2021).

The target of series [1] is Mu-type opioid receptor (Homo sapiens) (UniProt P35372). The conditions noted are these: Compound concentration 10.0 uM.
The target of series [2] is Serine/threonine-protein kinase N2 (Homo sapiens, UniProt Q16513). Put plainly: PKN2 [PRK2(PKN2LGG5)] Takeda global kinase panel.
The species named for the next series is Rattus norvegicus. The conditions noted are these: Compound concentration 10.0 uM.
Series [3] addresses Beta-3 adrenergic receptor (Homo sapiens) (UniProt P13945). The note with it: Compound concentration 10.0 uM.
The target in series [4] is D(1B) dopamine receptor (Homo sapiens) (UniProt P21918). The note with it: Compound concentration 10.0 uM.
For series [5], the target named is 5-hydroxytryptamine receptor 1B (Homo sapiens) (UniProt P28222). The conditions noted are these: Compound concentration 10.0 uM.
The target of series [6] is Bromodomain-containing protein 2 (Homo sapiens, UniProt P25440). Nature of the series: BRD2(BRD2LHRC) Takeda global kinase panel.
For series [7], the target named is Calcium/calmodulin-dependent protein kinase type II subunit gamma (Homo sapiens, UniProt Q13555). Nature of the series: CaMK2gamma(CA2GLGT5) Takeda global kinase panel.
Sequence of Calcium/calmodulin-dependent protein kinase type II subunit gamma (Q13555 whole entry): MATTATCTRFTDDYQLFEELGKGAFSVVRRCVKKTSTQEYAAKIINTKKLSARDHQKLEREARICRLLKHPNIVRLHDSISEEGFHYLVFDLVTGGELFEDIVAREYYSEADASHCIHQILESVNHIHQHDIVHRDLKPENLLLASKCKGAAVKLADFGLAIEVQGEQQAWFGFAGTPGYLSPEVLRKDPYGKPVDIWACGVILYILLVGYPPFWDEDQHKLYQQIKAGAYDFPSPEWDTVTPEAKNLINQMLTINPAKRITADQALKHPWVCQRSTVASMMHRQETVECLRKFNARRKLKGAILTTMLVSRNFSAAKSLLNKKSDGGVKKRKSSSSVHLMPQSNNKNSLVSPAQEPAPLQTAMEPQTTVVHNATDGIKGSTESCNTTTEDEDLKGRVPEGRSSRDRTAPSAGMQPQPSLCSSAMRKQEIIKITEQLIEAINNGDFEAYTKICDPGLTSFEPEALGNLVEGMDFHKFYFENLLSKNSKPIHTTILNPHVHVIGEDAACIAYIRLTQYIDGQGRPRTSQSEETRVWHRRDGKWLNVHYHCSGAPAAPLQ
Series [8] concerns the target Testis-specific serine/threonine-protein kinase 3 (Homo sapiens, UniProt Q96PN8). Put plainly: TSSK3(TSS3LGRM) Takeda global kinase panel.
The target in series [9] is cAMP-dependent protein kinase catalytic subunit alpha (Homo sapiens, UniProt P17612). Put plainly: PKAalpha(PRCALGH1) Takeda global kinase panel.
Series [10] addresses voltage-gated sodium channel, site 2 (Rattus norvegicus, UniProt F1LQQ7+O08562+O88420+O88457+P04774+P04775+P08104+P15389+P15390+Q62968). Nature of the series: Inhibition of Sodium Channel, Site 2 at 10 µM in the Eurofins-Panlabs radioligand binding assay (Eurofins_assay_279510). The series is classed as protein assay. On the set-up: ligand concentration 5 nM, non-specific ligand with concentration 100 µM Veratridine, incubation time 60 min, incubation temperature 37 °C. The conditions noted are these: male, Wistar, whole brain (except cerebellum) membranes of rats, probe [3H] Batrachotoxinin, compound concentration 10 uM.

Series [11] concerns the target Macrophage-stimulating protein receptor (Homo sapiens, UniProt Q04912). Put plainly: Ron(MST1MGY1) Takeda global kinase panel.
The next series addresses Tribbles homolog 1 (Homo sapiens, UniProt Q96RU8). Put plainly: Trb1(TRI1PARP) Takeda global kinase panel.
Series [12] deals with Calcium/calmodulin-dependent protein kinase type II subunit delta (Homo sapiens, UniProt Q13557). Put plainly: CaMK2delta(CA2DCGT1) Takeda global kinase panel.
Sequence of Calcium/calmodulin-dependent protein kinase type II subunit delta (Q13557 whole entry): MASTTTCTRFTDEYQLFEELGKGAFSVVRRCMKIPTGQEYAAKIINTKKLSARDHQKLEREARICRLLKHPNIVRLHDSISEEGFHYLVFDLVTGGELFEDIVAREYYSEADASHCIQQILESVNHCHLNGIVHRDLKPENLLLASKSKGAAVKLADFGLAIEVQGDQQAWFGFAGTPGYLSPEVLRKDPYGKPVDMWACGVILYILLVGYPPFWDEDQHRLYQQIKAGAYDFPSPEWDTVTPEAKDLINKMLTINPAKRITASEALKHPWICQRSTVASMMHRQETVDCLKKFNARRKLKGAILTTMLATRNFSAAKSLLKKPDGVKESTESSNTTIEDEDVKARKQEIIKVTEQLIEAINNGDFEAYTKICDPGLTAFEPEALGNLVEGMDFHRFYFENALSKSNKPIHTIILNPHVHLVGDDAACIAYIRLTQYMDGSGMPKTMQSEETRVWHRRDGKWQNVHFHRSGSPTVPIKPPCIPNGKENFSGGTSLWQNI
Series [13] has as its target cAMP-dependent protein kinase catalytic subunit beta (Homo sapiens, UniProt P22694). Nature of the series: PKAbeta(PRCBLGF1) Takeda global kinase panel.
In series [14] the target is Tyrosine-protein kinase Lyn (Homo sapiens, UniProt P07948). Nature of the series: Lyn(LYN1LGF1) Takeda global kinase panel.
Series [15] addresses Calcium/calmodulin-dependent protein kinase kinase 2 (Homo sapiens, UniProt Q96RR4). Nature of the series: CAMKK2(CAK2LGT5) Takeda global kinase panel.
The target of series [16] is Cyclin-dependent kinase-like 1 (Homo sapiens, UniProt Q00532). Put plainly: CDKL1(CDL1LGT1) Takeda global kinase panel.
Series [17] concerns the target Interleukin-1 receptor-associated kinase 1 (Homo sapiens, UniProt P51617). Put plainly: IRAK1(IRK1LGF1) Takeda global kinase panel.
Series [18] deals with Protein kinase C gamma type (Homo sapiens, UniProt P05129). Nature of the series: PKCgamma(PRKGLGP1) Takeda global kinase panel.

Sequence of Tribbles homolog 1 (Q96RU8 whole entry): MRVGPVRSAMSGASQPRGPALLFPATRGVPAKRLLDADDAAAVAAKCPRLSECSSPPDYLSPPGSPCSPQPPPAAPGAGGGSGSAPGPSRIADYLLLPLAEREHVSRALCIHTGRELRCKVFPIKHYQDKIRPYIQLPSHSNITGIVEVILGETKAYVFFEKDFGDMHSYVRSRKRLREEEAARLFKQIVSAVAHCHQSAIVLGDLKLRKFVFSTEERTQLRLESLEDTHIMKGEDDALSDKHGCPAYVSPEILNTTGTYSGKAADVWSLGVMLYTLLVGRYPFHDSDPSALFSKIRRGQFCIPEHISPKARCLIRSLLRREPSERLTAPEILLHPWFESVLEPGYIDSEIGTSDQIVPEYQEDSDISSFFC
Sequence of Calcium/calmodulin-dependent protein kinase kinase 2 (Q96RR4 whole entry): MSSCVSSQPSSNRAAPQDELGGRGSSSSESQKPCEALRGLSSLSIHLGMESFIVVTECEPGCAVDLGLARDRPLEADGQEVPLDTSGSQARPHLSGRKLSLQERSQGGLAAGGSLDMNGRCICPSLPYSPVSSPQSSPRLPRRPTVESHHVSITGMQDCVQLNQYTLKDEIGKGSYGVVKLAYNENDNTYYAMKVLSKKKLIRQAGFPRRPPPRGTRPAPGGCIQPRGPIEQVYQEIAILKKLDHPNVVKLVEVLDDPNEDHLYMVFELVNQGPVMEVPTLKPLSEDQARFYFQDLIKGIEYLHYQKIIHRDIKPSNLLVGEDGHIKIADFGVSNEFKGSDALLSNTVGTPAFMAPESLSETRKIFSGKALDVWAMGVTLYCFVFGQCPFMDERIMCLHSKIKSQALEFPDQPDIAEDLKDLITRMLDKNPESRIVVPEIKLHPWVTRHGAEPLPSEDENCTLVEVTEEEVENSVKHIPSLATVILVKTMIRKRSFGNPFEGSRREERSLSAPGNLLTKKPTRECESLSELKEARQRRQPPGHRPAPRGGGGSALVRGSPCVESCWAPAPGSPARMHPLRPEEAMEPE
Sequence of Mu-type opioid receptor (Homo sapiens) (P35372 whole entry): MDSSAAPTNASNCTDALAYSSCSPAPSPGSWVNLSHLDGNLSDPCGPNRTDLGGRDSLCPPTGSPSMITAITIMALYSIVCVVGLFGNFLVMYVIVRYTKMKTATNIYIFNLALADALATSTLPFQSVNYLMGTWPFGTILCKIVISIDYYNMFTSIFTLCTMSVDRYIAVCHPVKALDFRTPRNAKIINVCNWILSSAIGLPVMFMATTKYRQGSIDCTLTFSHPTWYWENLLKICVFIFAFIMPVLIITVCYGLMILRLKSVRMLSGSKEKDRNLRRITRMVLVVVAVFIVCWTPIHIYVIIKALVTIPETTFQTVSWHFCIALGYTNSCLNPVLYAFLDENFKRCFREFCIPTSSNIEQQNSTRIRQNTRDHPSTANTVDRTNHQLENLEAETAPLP
Sequence of Interleukin-1 receptor-associated kinase 1 (P51617 whole entry): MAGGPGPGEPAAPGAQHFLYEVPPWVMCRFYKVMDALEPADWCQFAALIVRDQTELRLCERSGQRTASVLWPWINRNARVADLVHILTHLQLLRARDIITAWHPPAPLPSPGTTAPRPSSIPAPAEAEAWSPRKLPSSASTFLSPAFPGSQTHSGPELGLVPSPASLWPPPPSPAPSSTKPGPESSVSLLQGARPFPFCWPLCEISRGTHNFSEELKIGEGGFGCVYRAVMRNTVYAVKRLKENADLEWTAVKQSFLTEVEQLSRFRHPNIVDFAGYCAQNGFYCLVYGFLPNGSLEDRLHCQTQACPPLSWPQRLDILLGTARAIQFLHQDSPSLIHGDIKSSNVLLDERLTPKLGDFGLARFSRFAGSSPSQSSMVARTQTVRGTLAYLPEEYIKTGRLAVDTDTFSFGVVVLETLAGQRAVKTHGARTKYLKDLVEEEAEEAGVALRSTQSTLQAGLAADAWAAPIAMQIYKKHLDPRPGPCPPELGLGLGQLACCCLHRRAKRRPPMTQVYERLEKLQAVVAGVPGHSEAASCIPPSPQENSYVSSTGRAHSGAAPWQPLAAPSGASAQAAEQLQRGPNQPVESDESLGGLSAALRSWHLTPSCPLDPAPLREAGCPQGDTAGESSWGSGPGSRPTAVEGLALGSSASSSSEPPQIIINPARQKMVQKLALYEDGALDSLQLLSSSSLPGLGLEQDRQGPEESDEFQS
Sequence of Macrophage-stimulating protein receptor (Q04912 25-304 limits assumed): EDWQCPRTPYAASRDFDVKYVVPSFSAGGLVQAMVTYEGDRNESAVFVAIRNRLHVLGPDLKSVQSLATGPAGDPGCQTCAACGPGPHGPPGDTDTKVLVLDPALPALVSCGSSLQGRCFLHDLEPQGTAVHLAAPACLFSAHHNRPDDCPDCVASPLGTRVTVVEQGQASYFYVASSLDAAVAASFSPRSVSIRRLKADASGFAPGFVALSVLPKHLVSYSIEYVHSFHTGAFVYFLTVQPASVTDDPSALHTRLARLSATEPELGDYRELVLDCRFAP
Sequence of Macrophage-stimulating protein receptor (Q04912 310-1400 limits assumed): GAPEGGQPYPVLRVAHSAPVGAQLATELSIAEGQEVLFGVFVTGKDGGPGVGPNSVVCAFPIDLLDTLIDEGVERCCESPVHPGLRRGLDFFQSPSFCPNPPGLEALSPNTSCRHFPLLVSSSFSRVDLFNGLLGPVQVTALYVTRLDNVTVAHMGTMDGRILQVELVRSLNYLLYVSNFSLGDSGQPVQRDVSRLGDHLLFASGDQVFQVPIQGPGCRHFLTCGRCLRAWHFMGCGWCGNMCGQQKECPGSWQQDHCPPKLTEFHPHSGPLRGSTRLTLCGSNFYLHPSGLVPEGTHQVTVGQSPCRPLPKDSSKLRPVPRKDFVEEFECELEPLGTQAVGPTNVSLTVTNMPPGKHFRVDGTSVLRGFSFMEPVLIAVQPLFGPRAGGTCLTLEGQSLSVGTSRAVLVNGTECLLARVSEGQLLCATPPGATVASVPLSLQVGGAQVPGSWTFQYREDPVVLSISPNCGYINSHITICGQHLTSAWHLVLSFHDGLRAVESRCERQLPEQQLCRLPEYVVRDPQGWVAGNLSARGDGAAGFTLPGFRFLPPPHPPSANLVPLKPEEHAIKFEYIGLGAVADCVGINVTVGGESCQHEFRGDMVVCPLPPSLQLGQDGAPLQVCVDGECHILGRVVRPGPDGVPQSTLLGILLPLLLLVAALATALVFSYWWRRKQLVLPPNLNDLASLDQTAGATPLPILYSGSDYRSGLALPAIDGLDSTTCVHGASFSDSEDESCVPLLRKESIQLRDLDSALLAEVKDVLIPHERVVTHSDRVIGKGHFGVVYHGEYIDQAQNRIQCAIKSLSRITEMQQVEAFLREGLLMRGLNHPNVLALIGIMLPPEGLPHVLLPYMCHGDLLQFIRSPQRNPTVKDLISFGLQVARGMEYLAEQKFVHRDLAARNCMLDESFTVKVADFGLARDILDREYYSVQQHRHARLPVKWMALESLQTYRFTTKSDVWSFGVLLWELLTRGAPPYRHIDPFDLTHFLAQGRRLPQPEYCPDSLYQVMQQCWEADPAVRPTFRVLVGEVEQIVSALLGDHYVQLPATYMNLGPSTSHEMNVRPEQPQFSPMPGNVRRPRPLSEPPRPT
Sequence of Beta-3 adrenergic receptor (Homo sapiens) (P13945 whole entry, looked up): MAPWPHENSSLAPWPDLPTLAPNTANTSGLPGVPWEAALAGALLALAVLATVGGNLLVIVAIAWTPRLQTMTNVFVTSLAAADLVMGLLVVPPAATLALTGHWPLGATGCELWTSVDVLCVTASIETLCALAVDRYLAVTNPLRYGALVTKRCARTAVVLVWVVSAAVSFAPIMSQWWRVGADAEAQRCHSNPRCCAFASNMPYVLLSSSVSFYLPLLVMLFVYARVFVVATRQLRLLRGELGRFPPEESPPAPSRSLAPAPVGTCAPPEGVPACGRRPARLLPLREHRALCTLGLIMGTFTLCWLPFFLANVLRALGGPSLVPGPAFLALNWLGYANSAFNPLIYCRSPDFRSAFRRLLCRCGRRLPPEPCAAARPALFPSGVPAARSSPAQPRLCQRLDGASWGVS

In the case of `CN1C(=O)[C@@H](N2CCc3cn(Cc4ccccc4)nc3C2=O)COc2ccccc21` [TP-030-1], the inhibition is 10.6% in [1]; -7% in the series filed under Rattus norvegicus; 9.8% in series [3]; 1.77% in [4]; 0.99% in series [5]. In series [2], this compound gave an IC50 of 1 µM.

Regarding `CN1C(=O)[C@@H](N2CCc3cn(CC4CCS(=O)(=O)CC4)nc3C2=O)COc2ccccc21` [TP-030n], the IC50 (in series [6]; in [7]; in series [8]; in series [9]; in series [11]; at Tribbles homolog 1) was 1 µM each time. Moreover, the IC50 in [12], in series [13], in [14], in [15], in series [16] and in [17] was 1 µM in each case. The same compound gave an IC50 in series [18] of 1 µM. Besides, the inhibition at 60 min, 10 µM in series [10] is reported as 9% (not active).
